Results from patent US20160151505A1 (KONINKLIJKE PHILIPS N.V., priority 2011, published 2016).
Read-outs that look alike come from different tables or passages of the source. Marks after values point to notes of the source that are not given here. Values belong to the compound of their own block, whether it stands above or below them.

How the values were obtained:
[1] = Reactivity of tetrazines towards trans-cyclooct-4-ene-1-ol (competition experiment); conditions: reference tetrazine 5; reaction with trans-cyclooct-4-ene-1-ol (axial isomer)
Procedure: A competition experiment was performed to determine the reactivity ratio of a specific tetrazine and 3-(5-acetamido-2-pyridyl)-6-(2-pyridyl)-1,2,4,5-tetrazine (that was chosen as the reference tetrazine), in the inverse-electron demand Diels-Alder reaction with trans-cyclooct-4-ene-1-ol (“minor” isomer with OH in axial position, see: Whitham et al. J. Chem. Soc. (C), 1971, 883-896)).
To acetonitrile (0.100 mL) was added 5 μL of a solution of the specific tetrazine in DMSO (25 mM) and 5 μL of a solution of the reference tetrazine in DMSO (25 mM). This mixture was diluted with water (0.9 mL), and the absolute amounts of both tetrazines were determined by HPLC-MS/PDA analysis. Subsequently, a solution of trans-cyclooct-4-ene-1-ol (axial isomer) in DMSO (25 μL 2.5 mM) was slowly added, and the mixture was stirred for 5 min. Again, the absolute amounts of both tetrazines were determined by HPLC-MS/PDA analysis, and conversions for both tetrazines was calculated. From these conversions, the reactivity ratio (R=k2,TCO/k2,Ref) of both tetrazines was calculated using the mathematical procedure from Ingold and Shaw (J. Chem. Soc., 1927, 2918-2926).

[2] = Hydrolytic stability tests of tetrazines; format: physicochemical
Description: This solution was filtered and, the decrease of the absorption band at 525 nm was monitored using UV spectroscopy.

[3] = Second-order rate constant determination of trans-cyclooctene derivatives with tetrazine; conditions: UV-visible spectroscopy in acetonitrile at 20° C.
Procedure: The kinetics of the inverse-electron demand Diels-Alder reaction of a trans-cyclooctene derivative with 3-(5-acetamido-2-pyridyl)-6-(2-pyridyl)-1,2,4,5-tetrazine, performed in acetonitrile at 20° C., was determined using UV-visible spectroscopy. A cuvette was filled with acetonitrile (3 mL) and equilibrated at 20° C. 3-(5-Acetamido-2-pyridyl)-6-(2-pyridyl)-1,2,4,5-tetrazine (2.50×10^−7 mol) was added, followed by the trans-cyclooctene derivative (2.50×10^−7 mol). The decay of the absorption at λ=540 nm was monitored, and from this curve the second-order rate constant, k2, was determined assuming second order rate kinetics.

[4] = Stability of trans-cyclooctene derivatives in PBS; conditions: PBS buffer
Procedure: (§1) 10 μL of a solution of the specific trans-cyclooctene derivative in dioxane (25 mM) was diluted with PBS buffer (3 mL), and this solution was stored at 20° C. in the dark.
(§2) The fate of the TCO compound was monitored by HPLC-MS analysis, and an estimation of the half-life time was made based on the release of the model prodrug.

[5] = system: A431 squamous carcinoma cells; assay: Cell proliferation assay (MTT); format: cell-based; conditions: Homo sapiens
[6] = Reactivity of trans-cyclooctene derivatives: competition experiment; conditions: reference trans-cyclooct-4-ene-1-ol (axial isomer)
Procedure: A competition experiment was performed to determine the reactivity ratio of a specific trans-cyclooctene derivative and trans-cyclooct-4-ene-1-ol (axial isomer) (that was chosen as the reference), in the inverse-electron demand Diels-Alder reaction with bis(2-pyridyl)-1,2,4,5-tetrazine.
This mixture was diluted with water (0.45 mL). Subsequently, a solution of bis(2-pyridyl)-1,2,4,5-tetrazine (6.25×10^−8 mol) in a mixture of acetonitrile (0.05 mL) and water (0.45 mL) was slowly added while stirring vigorously. After addition, the mixture was stirred for an additional 5 min. The conversion of both trans-cyclooctene derivatives was determined by HPLC-MS/PDA analysis, and from these conversions, the reactivity ratio (R=k2,TCO/k2,Ref) of the specific trans-cyclooctene derivative was calculated using the mathematical procedure from Ingold and Shaw (J. Chem. Soc., 1927, 2918-2926).

[7] = Reactivity of tetrazines towards trans-cyclooct-4-ene-1-ol (competition experiment); conditions: values marked *: 50:50 mixture of PBS and acetonitrile; reference tetrazine 5
physchem = conditions: buffer
Procedure: as §1, §2

[8] = Activation of doxorubicin prodrugs (release of doxorubicin); conditions: after 1 hr at 20° C.
Procedure: […] Next, […](E)-cyclooctene-doxorubicin conjugate (64, 2.67×10^−5 g; 2.50×10^−8 mol) was added.
[…] Next, (E)-cyclooctene-doxorubicin conjugate (68, 2.67×10^−5 g; 2.50×10^−8 mol) was added.

[9] = values marked *: 50:50 mixture of PBS and acetonitrile
[10] = stability in PBS at 20° C. t1/2, PBS, 20° C.
[11] = stability in PBS t1/2, PBS, 37° C.

Compound: O=C1CCCC(=O)N1c1ccc(-c2nnc(-c3ccccn3)nn2)nc1
- Reactivity ratio (R = k2,TZ/k2,Ref) [1]: 1.6
- half-life at 83 µM ([2]; PBS buffer, PBS, 20° C.): 24 h

Compound: Fc1ccc(-c2nnc(-c3ccc(F)cn3)nn2)nc1
- half-life at 83 µM ([2]; PBS buffer, PBS, 20° C.): 115 h

Compound: CCCC(=O)Nc1ccc(-c2nnc(-c3ccc(C(F)(F)F)cn3)nn2)nc1
- half-life at 83 µM [2, 9]: 35 h

Compound: CCCC(=O)Nc1ccc(-c2nnc(-c3ncccn3)nn2)nc1
- Reactivity ratio (R = k2,TZ/k2,Ref) [1]: 2.7
- half-life at 83 µM ([2]; PBS buffer, PBS, 20° C.): 3.2 h

Compound: CCCC(=O)Nc1ccc(-c2nnc(-c3ccc(F)cn3)nn2)nc1
- Reactivity ratio (R = k2,TZ/k2,Ref) [1]: 0.95
- half-life at 83 µM ([2]; PBS buffer, PBS, 20° C.): 117 h

Compound: c1cnc(-c2nnc(-c3cnccn3)nn2)cn1
- Reactivity ratio (R = k2,TZ/k2,Ref) [1]: 1.5
- half-life at 83 µM ([2]; PBS buffer, PBS, 20° C.): 0.68 h

Compound: NCc1ccc(-c2nncnn2)cc1
- Reactivity ratio (R = k2,TZ/k2,Ref) [1]: 0.77
- half-life at 83 µM ([2]; PBS buffer, PBS, 20° C.): 183 h

Compound: Nc1cccc(-c2nnc(-c3ccccc3)nn2)c1
- half-life at 83 µM [2, 9]: > 300 h

Compound: c1ccc(-c2nncnn2)nc1
- half-life at 83 µM ([2]; PBS buffer, PBS, 20° C.): 2.7 h

Compound: CCCNC(=O)c1ccc(-c2nnc(-c3ncccn3)nn2)nc1
- Reactivity ratio (R = k2,TZ/k2,Ref) [1]: 2
- half-life at 83 µM ([2]; PBS buffer, PBS, 20° C.): 0.42 h

Compound: c1c[nH]c(-c2nnc(-c3ccc[nH]3)nn2)c1
- half-life at 83 µM [2, 9]: > 300 h

Compound: c1c[nH]c(-c2nnc(-c3ncc[nH]3)nn2)n1
- Reactivity ratio (R = k2,TZ/k2,Ref) [1]: 1.2

Compound: N[C@H]1CC/C=C/CC[C@H]1NC(=O)Oc1ccccc1 (relative stereo) [compound 36, cis-(E)-phenyl(8-aminocyclooct-4-en-1-yl)carbamate]
- rate contant* k2 [3]: 240 M⁻¹ s⁻¹
- half-life at 83 µM [4]: 27 h

Compound: COc1cccc2c1C(=O)c1c(O)c3c(c(O)c1C2=O)C[C@@](O)(C(=O)CO)C[C@@H]3O[C@H]1C[C@H](N)[C@H](O)[C@H](C)O1 [Dox, Doxorubicin, reference compound]
- IC50 ([5]; A-431, A431 cell line, 6 h incubation at 37° C. followed by medium replacement, read-out: IC50): 38 ± 3 nM

Compound: c1ccc(-c2nnc(-c3ccccn3)nn2)nc1 [compound 2, 3,6-bis(2-pyridyl)-1,2,4,5-tetrazine]
- half-life at 83 µM ([2]; PBS buffer, PBS, 20° C.): 44 h

Compound: CC(=O)Nc1ccc(-c2nnc(-c3ccccn3)nn2)nc1 [compound 5, 3-(5-acetamido-2-pyridyl)-6-(2-pyridyl)-1,2,4,5-tetrazine]
- Reactivity ratio (R = k2,TZ/k2,Ref) [1]: 1
- half-life at 83 µM ([2]; PBS buffer, PBS, 20° C.): 80 h

Compound: Nc1ccccc1-c1nnc(-c2ccccc2N)nn1 [compound 9, 3,6-bis(2-aminophenyl)-1,2,4,5-tetrazine]
- half-life at 83 µM [2, 9]: > 300 h
- Reactivity ratio (R = k2,TZ/k2,Ref) [7]: <0 .01*

Compound: Cc1ccccc1OC(=O)NC1CC/C=C/CCC1N (stereo not drawn) [compound 39]
- half-life at 83 µM [4]: 192 h

Compound: COc1ccccc1OC(=O)NC1CC/C=C/CCC1N (stereo not drawn) [compound 41]
- half-life at 83 µM [4]: 21 h

Compound: Cc1cccc(C)c1OC(=O)NC1CC/C=C/CCC1N (stereo not drawn) [compound 43]
- half-life at 83 µM [4]: > 480 h

Compound: CC(C)(C)c1ccccc1OC(=O)NC1CC/C=C/CCC1N (stereo not drawn) [compound 45]
- half-life at 83 µM [4]: > 480 h

Compound: NC1/C=C/CCCCC1NC(=O)Oc1ccccc1 (stereo not drawn) [compound 56, trans phenyl(E)-2-aminocyclooct-3-en-1-yl carbamate]
- half-life at 83 µM [4]: 120 h

Compound: O=C(Oc1ccccc1)N1C/C=C/CNCC1 [compound 61, (E)-phenyl 2,3,4,5-tetrahydro-1,4-diazocine-1(8H)-carboxylate]
- rate contant* k2 [3]: 47 M⁻¹ s⁻¹
- half-life at 83 µM [4]: > 480 h

Compound: COc1cccc2c1C(=O)c1c(O)c3c(c(O)c1C2=O)C[C@@](O)(C(=O)CO)C[C@@H]3OC1CC(NC(=O)OCc2ccc(CC(=O)NC3CC/C=C/CCC3N)cc2)[C@H](O)C(C)O1 (stereo partly drawn) [compound 64, (E)-cyclooctene-doxorubicin conjugate]
- half-life (physchem; [10]): 24 h
- half-life (physchem; [11]): 3.6 h
- doxorubicin released ([8]; with 3,6-Diphenyl-1,2,4,5-tetrazine): 48%
- doxorubicin released ([8]; with 3-(5-Acetamido-2-pyridyl)-6-(2-pyridyl)-1,2,4,5-tetrazine (5)): 30%
- doxorubicin released ([8]; with 3-(5-Butyramido-2-pyridyl)-6-(2-pyrimidyl)-1,2,4,5-tetrazine): 20%
- doxorubicin released ([8]; with 3-Methyl-6-(2-pyridyl)-1,2,4,5-tetrazine (7)): 52%
- doxorubicin released ([8]; with 4-(1,2,4,5-Tetrazin-3-yl)phenylmethanamine): 50%
- IC50 ([5]; A-431, 6 h, A431 cell line, 6 h incubation at 37° C. followed by medium replacement): 128 ± 17 nM
- IC50 ([5]; A-431, 6 h, A431 cell line, in combination with tetrazine 29 (10 μM), 6 h incubation at 37° C. followed by medium replacement): 49 ± 4 nM
- IC50 ([5]; A-431, A431 cells, combination of the prodrug 64 and tetrazine 29): 49 ± 4 nM
- IC50 ([5]; A-431, A431 cells, prodrug alone): 128 nM

Compound: COc1cccc2c1C(=O)c1c(O)c3c(c(O)c1C2=O)C[C@@](O)(C(=O)CO)C[C@@H]3OC1CC(NC(=O)OCc2cc(C)c(CC(=O)NC3CC/C=C/CCC3N)c(C)c2)[C@H](O)C(C)O1 (stereo partly drawn) [compound 68, (E)-cyclooctene-doxorubicin conjugate]
- half-life (physchem; [10]): 624 h
- half-life (physchem; [11]): 149 h

Continued, in another order:

- half-life at 83 µM ([2]; PBS buffer, PBS, 20° C.): 340 h
Compound: Nc1ccc(-c2nnc(-c3ccccn3)nn2)nc1
- Reactivity ratio (R = k2,TZ/k2,Ref) [1]: 0.4

- half-life at 83 µM [2, 9]: > 300 h
Compound: c1cc(-c2nnc(-c3ccsc3)nn2)cs1

- half-life at 83 µM [2, 9]: 3.6 h
Compound: FC(F)(F)c1ccc(-c2nnc(-c3ccc(C(F)(F)F)cn3)nn2)nc1

- half-life at 83 µM ([2]; PBS buffer, PBS, 20° C.): > 150 h
Compound: c1cncc(-c2nnc(-c3cccnc3)nn2)c1
- Reactivity ratio (R = k2,TZ/k2,Ref) [1]: 0.19

- half-life at 83 µM ([2]; PBS buffer, PBS, 20° C.): 2.4 h
Compound: c1cc(-c2nnc(-c3ccncc3)nn2)ccn1
- Reactivity ratio (R = k2,TZ/k2,Ref) [1]: 0.83

- half-life at 83 µM [2, 9]: > 300 h
Compound: c1csc(-c2nnc(-c3cccs3)nn2)c1

- half-life at 83 µM [2, 9]: > 300 h
Compound: Nc1ccc(-c2nnc(-c3ccccc3)nn2)cc1

- half-life at 83 µM ([2]; PBS buffer, PBS, 20° C.): 4 h
Compound: CCCNC(=O)c1ccc(-c2nnc(-c3ccccn3)nn2)nc1

- half-life at 83 µM [2, 9]: > 300 h
Compound: c1ccc(-c2nnc(-c3ccccc3)nn2)cc1

- half-life at 83 µM ([2]; PBS buffer, PBS, 20° C.): 10.3 h
Compound: CCCC(=O)Nc1ccc(-c2nncnn2)nc1
- Reactivity ratio (R = k2,TZ/k2,Ref) [1]: 2.8

- half-life at 83 µM ([2]; PBS buffer, PBS, 20° C.): 300 h
Compound: CCCC(=O)Nc1ccc(-c2nnc(C)nn2)nc1
- Reactivity ratio (R = k2,TZ/k2,Ref) [1]: 0.18

- half-life at 83 µM [4]: > 480 h
Compound: NC1CC/C=C/CCC1NC(=O)Nc1ccccc1 (stereo not drawn) [47 major, cis phenyl((E)-8-aminocyclooct-4-en-1-yl)urea]

- half-life at 83 µM [4]: > 72 h
Compound: OC1CC/C=C/CCC1 (stereo not drawn) [axial isomer, trans-cyclooct-4-ene-1-ol, reference compound]
- reactivity ratio** (R = k2,TCO/k2,Ref) [6]: 1

- half-life at 83 µM ([2]; PBS buffer, PBS, 20° C.): 230 h
Compound: Cc1nnc(-c2ccccn2)nn1 [compound 7, 3-(2-pyridyl)-6-methyl-1,2,4,5-tetrazine]
- Reactivity ratio (R = k2,TZ/k2,Ref) [1]: 0.25

- half-life at 83 µM [2, 9]: > 300 h
Compound: Oc1ccc(-c2nnc(-c3ccc(O)cc3)nn2)cc1 [compound 11, 3,6-bis(4-hydroxyphenyl)-1,2,4,5-tetrazine]

- half-life at 83 µM [2, 9]: > 300 h
Compound: Nc1ccc(-c2nnc(-c3ccc(N)cc3)nn2)cc1 [compound 13, 3,6-bis(4-aminophenyl)-1,2,4,5-tetrazine]

- half-life at 83 µM ([2]; PBS buffer, PBS, 20° C.): 16 h
Compound: NCc1nnc(CN)nn1 [compound 20, 3,6-bis(aminomethyl)-1,2,4,5-tetrazine]

- half-life at 83 µM [4]: > 240 h
Compound: COc1cc(COC(=O)NC2CC/C=C/CCC2N)cc(OC)c1OC (stereo not drawn) [compound 37, cis-(E)-3,4,5-trimethoxybenzyl(8-aminocyclooct-4-en-1-yl)carbamate]
- rate contant* k2 [3]: 300 M⁻¹ s⁻¹
